Where two headings read alike, the source gives them in different places.
Legend:
SOCE = SOCE inhibition in HEK cells by fluorescence microscopy (calcium imaging); assay type: cell-based, human; conditions: for AUC, peak amplitude, and slope of the Ca2+-rise: selected compounds, Figure S1; for inhibition at 10 µM / inhibition at 3 µM: Homo sapiens; for inhibition at 10 µM: negative value = increased Ca2+ entry vs control
Procedure: With these two compounds in hand, two click reactions were performed and compounds 9 and 18 (Table 1), displaying the same substructures as the reference compound Synta66, were obtained with a yield of 31 and 60%, respectively. 9 and 18 were tested for activity on SOCE in HEK cells, a human embryonic kidney (HEK) cell line, by fluorescence microscopy, as described elsewhere.[16] After 600 s, Ca^2+ was added and intracellular levels were measured.
Screening, dose–response experiments, and calcium imaging experiments were performed in HEK cells (ATCC, Rock, ville, MD, USA), as already reported elsewhere.[16]

HEK cells [1] = tested on: HEK cells
HEK cells [2] = assay: HEK cell viability after 72 h at 50 μM with or without uridine (involvement of DHODH); conditions: 50 μM, 72 h; for reversal of cytotoxicity by uridine: uridine 100 μM
chemically induced AP = tested on: chemically induced AP; design: method as in PMID 31050811; conditions: three different murine models; cited from earlier work
[3] = HEK293, supplementary CSV, HEK cells, read-out: % SOCE Inhibition (3 µM)

| Structure (SMILES) | AUC, peak amplitude, and slope of the Ca2+-rise (SOCE; HEK cells) | inhibition at 10 µM (SOCE; HEK293, HEK cells, 10 μM) [%] | effect on SOCE, in words (SOCE; HEK cells) | further results |
| --- | --- | --- | --- | --- |
| COc1ccc(F)c(-c2ccc(-n3cc(-c4cccc(C(=O)O)c4)nn3)cc2)c1 [Compound 40, 3-(1-(2′-Fluoro-5′-methoxy-[1,1′-biphenyl]-4-yl)-1H-1,2,3-triazol-4-yl)benzoic Acid] | induced a drop in the three parameters |  |  |  |
| COc1ccc(OC)c(-c2ccc(-c3cn(-c4cccc(C(=O)O)c4)nn3)cc2)c1 [Compound 23, 3-(4-(2′,5′-Dimethoxy-[1,1′-biphenyl]-4-yl)-1H-1,2,3-triazol-1-yl)benzoic Acid] |  | > 70 |  | AUC and peak amplitude of the Ca2+-rise vs control (SOCE; HEK cells, 10 μM): significantly reduced AUC and peak amplitude |
| O=C(O)c1cccc(-c2cn(-c3ccc(-c4ccc5c(c4)OCCO5)cc3)nn2)c1 [Compound 38, 3-(1-(4-(2,3-Dihydrobenzo[b][1,4]dioxin-6-yl)phenyl)-1H-1,2,3-triazol-4-yl)benzoic Acid] | induced a drop in the three parameters |  |  |  |
| O=C(O)c1cccc(-c2cn(-c3ccc(-c4cccc5c4OCCO5)cc3)nn2)c1 [Compound 35, 3-(1-(4-(2,3-Dihydrobenzo[b][1,4]dioxin-5-yl)phenyl)-1H-1,2,3-triazol-4-yl)benzoic Acid] | induced a drop in the three parameters |  |  |  |
| COc1ccc(F)c(-c2ccc(-c3cn(-c4cccc(C(=O)O)c4)nn3)cc2)c1 [Compound 56, 3-(4-(2′-Fluoro-5′-methoxy-[1,1′-biphenyl]-4-yl)-1H-1,2,3-triazol-1-yl)benzoic Acid] | induced a drop in the three parameters |  |  |  |
| COC(=O)c1cc(-n2cc(-c3ccc(-c4cc(OC)ccc4OC)cc3)nn2)ccn1 [Compound 21, Methyl 4-(4-(2′,5′-Dimethoxy-[1,1′-biphenyl]-4-yl)-1H-1,2,3-triazol-1-yl)picolinate] |  | > 70 |  |  |
| COc1ccc(OC)c(-c2ccc(-n3cc(-c4ccccn4)nn3)cc2)c1 [Compound 12, 2-(1-(2′,5′-Dimethoxy-[1,1′-biphenyl]-4-yl)-1H-1,2,3-triazol-4-yl)pyridine] |  | 0 |  | inhibition at 3 µM (SOCE; [3]): 0% |
| Cc1c(-c2ccc(-c3ccccc3F)cc2)nc2ccc(F)cc2c1C(=O)O [brequinar] |  |  |  | cell viability / cytotoxicity at 50 μM, 72 h (HEK cells [1]): cytotoxic; reversal of cytotoxicity by uridine (HEK cells [1]): reverted by uridine addition |
| COc1ccc(OC)c(-c2ccc(-n3cc(-c4cccc(C(=O)O)c4)nn3)cc2)c1 [Compound 14, 3-(1-(2′,5′-Dimethoxy-[1,1′-biphenyl]-4-yl)-1H-1,2,3-triazol-4-yl)benzoic Acid] |  | > 70 |  |  |
| COc1ccc(OC)c(-c2ccc(-n3cc(-c4ccnc(C(=O)O)c4)nn3)cc2)c1 [Compound 13, 4-(1-(2′,5′-Dimethoxy-[1,1′-biphenyl]-4-yl)-1H-1,2,3-triazol-4-yl)picolinic Acid] |  | > 70 |  |  |
| O=C(O)c1cccc(C(=O)Nc2ccc(-c3ccc4c(c3)OCCO4)cc2)c1 [Compound 64, 3-((4-(2,3-Dihydrobenzo[b][1,4]dioxin-6-yl)phenyl)carbamoyl)benzoic Acid] |  |  | significantly reduced activity compared to the parent compound | cell viability / cytotoxicity at 50 μM, 72 h (HEK cells [2]): significant cytotoxicity; reversal of cytotoxicity by uridine (HEK cells [2]): fully reverted by uridine |
| COc1cccc(-c2ccc(-c3cn(-c4cccc(C(=O)O)c4)nn3)cc2)c1OC [Compound 50, 3-(4-(2′,3′-Dimethoxy-[1,1′-biphenyl]-4-yl)-1H-1,2,3-triazol-1-yl)benzoic Acid] | induced a drop in the three parameters |  |  |  |
| COc1ccc(OC)c(-c2ccc(-n3cc(-c4cccnc4)nn3)cc2)c1 [Compound 11, 3-(1-(2′,5′-Dimethoxy-[1,1′-biphenyl]-4-yl)-1H-1,2,3-triazol-4-yl)pyridine] |  | -14 ± 31.9 | not able to reliably inhibit SOCE | inhibition at 3 µM (SOCE; [3]): -14 ± 31.9% |
| COc1ccc(OC)c(-c2ccc(-n3cc(-c4ccncc4F)nn3)cc2)c1 [Compound 9, 4-(1-(2′,5′-Dimethoxy-[1,1′-biphenyl]-4-yl)-1H-1,2,3-triazol-4-yl)-3-fluoropyridine] |  |  | not able to reliably inhibit SOCE |  |
| COc1ccc(OC)c(-c2ccc(-c3cn(-c4ccncc4)nn3)cc2)c1 [Compound 19, 4-(4-(2′,5′-Dimethoxy-[1,1′-biphenyl]-4-yl)-1H-1,2,3-triazol-1-yl)pyridine] |  |  | not able to reliably inhibit SOCE |  |
| COc1cc(OC)cc(-c2ccc(-n3cc(-c4cccc(C(=O)O)c4)nn3)cc2)c1 [Compound 36, 3-(1-(3′,5′-Dimethoxy-[1,1′-biphenyl]-4-yl)-1H-1,2,3-triazol-4-yl)benzoic Acid] | induced a drop in the three parameters |  |  |  |
| COc1cccc(-c2ccc(-n3cc(-c4cccc(C(=O)O)c4)nn3)cc2)c1 [Compound 31, 3-(1-(3′-Methoxy-[1,1′-biphenyl]-4-yl)-1H-1,2,3-triazol-4-yl)benzoic Acid] | induced a drop in the three parameters |  |  |  |
| COc1ccc(OC)c(-c2ccc(-c3cn(-c4cccnc4)nn3)cc2)c1 [Compound 20, 3-(4-(2′,5′-Dimethoxy-[1,1′-biphenyl]-4-yl)-1H-1,2,3-triazol-1-yl)pyridine] |  |  | not able to reliably inhibit SOCE |  |
| COc1ccc(OC)c(-c2ccc(-n3cc(-c4ccncc4)nn3)cc2)c1 [Compound 10, 4-(1-(2′,5′-Dimethoxy-[1,1′-biphenyl]-4-yl)-1H-1,2,3-triazol-4-yl)pyridine] |  | -12.8 ± 14.4 | not able to reliably inhibit SOCE | inhibition at 3 µM (SOCE; [3]): -12.8 ± 14.4% |
| O=C(O)c1cccc(NC(=O)c2ccc(-c3ccc4c(c3)OCCO4)cc2)c1 [Compound 69, 3-(4-(2,3-Dihydrobenzo[b][1,4]dioxin-6-yl)benzamido)benzoic Acid] |  |  | significantly reduced activity compared to the parent compound |  |
| O=C(Nc1ccn(Cc2ccc(O)cc2C(F)(F)F)n1)c1c(F)cccc1F [GSK-7975A] |  |  |  | protection in murine models of chemically induced AP (chemically induced AP): protective |
| Cc1cccc(F)c1C(=O)Nc1cnc(-c2cc3c(cc2Cl)OC(F)(F)O3)cn1 [CM4620, reference compound] |  |  |  | protection in murine models of chemically induced AP (chemically induced AP): protective; cell viability / cytotoxicity at 50 μM, 72 h (HEK cells [2]): cytotoxic; reversal of cytotoxicity by uridine (HEK cells [2]): not reverted by uridine |
| COc1cccc(OC)c1-c1ccc(-c2cn(-c3cccc(C(=O)O)c3)nn2)cc1 [Compound 47, 3-(4-(2′,6′-Dimethoxy-[1,1′-biphenyl]-4-yl)-1H-1,2,3-triazol-1-yl)benzoic Acid] |  |  | positive modulator of SOCE | AUC of calcium entry and peak amplitude vs control (SOCE; HEK cells, 3 μM): significantly increased the AUC of calcium entry and the peak amplitude; slope of the Ca2+-rise vs control (SOCE; HEK cells, 3 μM): absence of effect on slope; inhibition at 3 µM (SOCE; HEK293, HEK cells, 3 μM, negative value = increased SOCE, read-out: % SOCE inhibition (3 μM)): -22.8 ± 0.9% |

— article PMC7735735, “Store-Operated Calcium Entry as a Therapeutic Target in Acute Pancreatitis: Discovery and Development of Drug-Like SOCE Inhibitors” (Journal of Medicinal Chemistry, 2020)
